Measurements reported in the NIST ThermoML archive (doi:10.1016/j.fluid.2005.06.017).
Numbers after ± are expanded uncertainties.

Settings: Liquid, Ebulliometric method (Recirculating still)

Row | SMILES | vapor or sublimation pressure (333.15 K) [kPa] | vapor or sublimation pressure (353.15 K) [kPa] | vapor or sublimation pressure (373.15 K) [kPa]
1 | COC(C)(C)C [2-methoxy-2-methylpropane] | 120.4 ± 3.2 | – | –
2 | CN1CCCC1=O [N-methylpyrrolidone] | 0.5 | 1.3 | 3.6 ± 3
3 | CCC(C)(C)OC [2-methoxy-2-methylbutane] | – | 86.7 ± 3.1 | –
4 | CCCOCCC [dipropyl ether] | – | 74.1 ± 3.1 | 135.5 ± 3.1
